# Test results reported in PMC5553068 (Bioorganic & medicinal chemistry, 2017).
# How the values were obtained:
# human renin = target: T1, human renin (Homo sapiens, UniProt P00797); settings: for Ligand Efficiency: Table 3
# T1 sequence (P00797 67-406): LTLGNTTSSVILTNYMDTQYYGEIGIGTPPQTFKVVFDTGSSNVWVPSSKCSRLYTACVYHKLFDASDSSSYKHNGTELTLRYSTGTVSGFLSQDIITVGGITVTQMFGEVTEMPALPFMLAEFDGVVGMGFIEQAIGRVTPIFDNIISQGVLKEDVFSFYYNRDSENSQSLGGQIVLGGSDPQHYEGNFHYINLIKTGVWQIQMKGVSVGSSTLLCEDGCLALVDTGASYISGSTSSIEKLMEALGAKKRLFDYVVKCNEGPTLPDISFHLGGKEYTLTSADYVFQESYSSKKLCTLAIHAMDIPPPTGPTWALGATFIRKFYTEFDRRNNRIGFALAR
# [1] = Table 7, literature comparators, no reference given; cited from earlier work
# renin = settings: ligand of the 2IKO X-ray structure; cited from earlier work
# [2] = Rat in vivo pharmacokinetic studies; parameters: species or system Sprague Dawley rats; settings: for AUC: 10 mg/kg po dose, HCl salts, vehicle D5W, mean n = 3; for clearance / bioavailability: Sprague-Dawley, plasma; for clearance: iv, 1 mg/kg; for bioavailability: po, 10 mg/kg
smiles,measurement,setting,value
"CCc1nc(N)nc(N)c1-c1ccc2c(c1)N(CCCOC)CCC2 [Compound 6c, reference compound]",Ligand Efficiency,human renin,0.34
CCc1nc(N)nc(N)c1-c1ccc2c(c1)N(CCCOC)C(=O)C(C)(c1cc(F)cc(F)c1)O2 (centres unmarked) [Compound 7c],%F (rat),[1],0.4%
CCc1nc(N)nc(N)c1-c1ccc(NCc2cc(F)cc(F)c2)cc1 [Compound 8],IC50,renin,4 µM
"COCCCN1CCCc2ccc(-c3c(C)cc(N)nc3C)cc21 [Compound 12, 5-(1-(3-Methoxypropyl)-1,2,3,4-tetrahydroquinolin-7-yl)-4,6-dimethylpyridin-2-amine]",Ligand Efficiency,human renin,0.27
"CCc1nc(N)cc(C)c1-c1ccc2c(c1)N(CCCOC)CCC2 [Compound 13, 6-Ethyl-5-(1-(3-methoxypropyl)-1,2,3,4-tetrahydroquinolin-7-yl)-4-methylpyridin-2-amine]",Ligand Efficiency,human renin,0.34
"CCc1nc(N)cc(OC)c1-c1ccc2c(c1)N(CCCOC)CCC2 [Compound 15, 6-Ethyl-4-methoxy-5-(1-(3-methoxypropyl)-1,2,3,4-tetrahydroquinolin-7-yl)pyridin-2-amine]",Ligand Efficiency,human renin,0.33
"CCc1nc(N)cc(C)c1-c1cccc2c(C)c[nH]c12 [Compound 20, 6-Ethyl-4-methyl-5-(3-methyl-1H-indol-7-yl)pyridin-2-amine]",fold improvement in activity,human renin; going from 17 to 19 and then to 20,36 fold
"CCc1nc(N)cc(C)c1-c1ccc(F)c2c(C)c(CCOC)[nH]c12 [Compound 27, 6-Ethyl-5-(4-fluoro-2-(2-methoxyethyl)-3-methyl-1H-indol-7-yl)-4-methylpyridin-2-amine]",AUC,[2],473 ngh/mL
same,clearance,[2],68 mL/min/kg
same,bioavailability,[2],20%
"CCc1nc(N)cc(C)c1-c1ccc2c(c1)N(CCNC(C)=O)C(=O)C(C)(C)O2 [Compound 32, N-(2-(6-(6-Amino-2-ethyl-4-methylpyridin-3-yl)-2,2-dimethyl-3-oxo-2H-benzo[b][1,4]oxazin-4(3H)-yl)ethyl)acetamide]",AUC,[2],1810 ngh/mL
same,clearance,[2],66 mL/min/kg
same,bioavailability,[2],58%
"CCc1nc(N)cc(OC)c1-c1ccc2c(c1)N(CCNC(C)=O)C(=O)C(C)(C)O2 [Compound 33, N-(2-(6-(6-Amino-2-ethyl-4-methoxypyridin-3-yl)-2,2-dimethyl-3-oxo-2H-benzo[b][1,4]oxazin-4(3H)-yl)ethyl)acetamide]",AUC,[2],1493 ngh/mL
same,clearance,[2],56 mL/min/kg
same,bioavailability,[2],39%
"CCc1nc(N)cc(C)c1-c1ccc2c(c1)N(CCCOC)C(=O)C(C)(C)O2 [Compound 34, 6-(6-Amino-2-ethyl-4-methylpyridin-3-yl)-4-(3-methoxypropyl)-2,2-dimethyl-2H-benzo[b][1,4]oxazin-3(4H)-one]",fold improvement in affinity vs 7b,"human renin; 6-ethyl-2-aminopyridine head group vs pyrimidine 7b, Table 5",2- to 3 fold
